# Where two headings read alike, the source gives them in different places.
# Key:
# [1] = system: Pseudoperonospora cubensis (the causal agent of cucumber downy mildew); test: Test B: cucumber downy mildew, preventive spray on cucumber seedlings; assay type: in vivo
# [2] = system: Phytophthora infestans (the causal agent of tomato late blight); test: whole plant or invertebrate; assay type: in vivo; conditions: for pest or weed control at 0.08 ppm: read-out: TLB Obsd, component (b) alone, 0.08 ppm
# [3] = component (b) alone 2 ppm (Compound 1 0 ppm)
# [4] = component (b) alone 10 ppm (Compound 1 0 ppm)
# [5] = Pseudoperonospora cubensis, component (b) alone 0.08 ppm (Compound 1 0 ppm), read-out: CDM Obsd
# [6] = Pseudoperonospora cubensis, component (b) alone 0.4 ppm (Compound 1 0 ppm), read-out: CDM Obsd
# [7] = Pseudoperonospora cubensis, component (b) alone 2 ppm (Compound 1 0 ppm), read-out: CDM Obsd
# [8] = Pseudoperonospora cubensis, component (b) alone 10 ppm (Compound 1 0 ppm), read-out: CDM Obsd
# [9] = Pseudoperonospora cubensis, component (b) alone, 0.08 ppm, read-out: CDM Obsd
# [10] = Pseudoperonospora cubensis, component (b) alone, 0.4 ppm, read-out: CDM Obsd
# [11] = Pseudoperonospora cubensis, component (b) alone, 2 ppm, read-out: CDM Obsd
# [12] = Pseudoperonospora cubensis, component (b) alone, 10 ppm, read-out: CDM Obsd
# [13] = Pseudoperonospora cubensis, component (b) alone, 40 ppm, read-out: CDM Obsd
# [14] = Phytophthora infestans, read-out: TLB Obsd, component (b) alone, 0.4 ppm
# [15] = Phytophthora infestans, read-out: TLB Obsd, component (b) alone, 2 ppm
# [16] = Phytophthora infestans, read-out: TLB Obsd, component (b) alone, 10 ppm
# [17] = Phytophthora infestans, read-out: TLB Obsd, component (b) alone, 40 ppm
# [18] = Table D, component (b) alone at 2 ppm
# [19] = Table D, component (b) alone at 10 ppm
# [20] = Table D, component (b) alone at 40 ppm
# [21] = Table D, component (b) alone at 200 ppm
# [22] = Table D, component (b) alone at 500 ppm
structure (smiles),measurement,setting,value
COC(=O)CC(NC(=O)[C@@H](NC(=O)OC(C)C)C(C)C)c1ccc(Cl)cc1 (some centres unmarked) [valiphenal],CDM Obsd,[1]; component (b) alone 0.016 ppm (Compound 1 0 ppm),65%
same,CDM Obsd,[1]; component (b) alone 0.08 ppm (Compound 1 0 ppm),47%
same,CDM Obsd,[1]; component (b) alone 0.4 ppm (Compound 1 0 ppm),47%
same,CDM Obsd,[1]; [3],47%
same,CDM Obsd,[1]; [4],57%
same,CDM Obsd,"[1]; component (b) alone, 0.016 ppm",31%
same,CDM Obsd,"[1]; component (b) alone, 0.08 ppm",16%
same,CDM Obsd,"[1]; component (b) alone, 0.4 ppm",16%
same,CDM Obsd,"[1]; component (b) alone, 2 ppm",53%
same,CDM Obsd,"[1]; component (b) alone, 10 ppm",100%
same,TLB Obsd,"[2]; component (b) alone, 0.016 ppm",8%
same,TLB Obsd,"[2]; component (b) alone, 0.08 ppm",8%
same,TLB Obsd,"[2]; component (b) alone, 0.4 ppm",8%
same,TLB Obsd,"[2]; component (b) alone, 2 ppm",32%
same,TLB Obsd,"[2]; component (b) alone, 10 ppm",99%
CSC1=N[C@@](C)(c2ccccc2)C(=O)N1Nc1ccccc1 [fenamidone],pest or weed control at 0.08 µg/mL,[1]; [5],65%
same,pest or weed control at 0.4 µg/mL,[1]; [6],47%
same,pest or weed control at 2 µg/mL,[1]; [7],82%
same,pest or weed control at 10 µg/mL,[1]; [8],100%
same,pest or weed control at 40 µg/mL,"[1]; Pseudoperonospora cubensis, component (b) alone 40 ppm (Compound 1 0 ppm), read-out: CDM Obsd",100%
same,pest or weed control at 0.08 ppm,[1]; [9],0%
same,pest or weed control at 0.4 ppm,[1]; [10],0%
same,pest or weed control at 2 ppm,[1]; [11],85%
same,pest or weed control at 10 ppm,[1]; [12],100%
same,pest or weed control at 40 ppm,[1]; [13],100%
same,pest or weed control at 0.08 ppm,[2]; Phytophthora infestans,22%
same,pest or weed control at 0.4 ppm,[2]; [14],30%
same,pest or weed control at 2 ppm,[2]; [15],99%
same,pest or weed control at 10 ppm,[2]; [16],100%
same,pest or weed control at 40 ppm,[2]; [17],100%
CC(C)CC(C)c1sccc1NC(=O)c1cn(C)nc1C(F)(F)F (centres unmarked) [penthiopyrad],pest or weed control at 0.4 ppm,"[1]; Pseudoperonospora cubensis, Table A, component (b) alone 0.4 ppm, read-out: CDM Obsd (disease control rating)",47%
same,pest or weed control at 2 ppm,"[1]; Pseudoperonospora cubensis, Table A, component (b) alone 2 ppm, read-out: CDM Obsd (disease control rating)",47%
same,pest or weed control at 10 ppm,"[1]; Pseudoperonospora cubensis, Table A, component (b) alone 10 ppm, read-out: CDM Obsd (disease control rating)",47%
same,pest or weed control at 40 ppm,"[1]; Pseudoperonospora cubensis, Table A, component (b) alone 40 ppm, read-out: CDM Obsd (disease control rating)",47%
same,pest or weed control at 200 ppm,"[1]; Pseudoperonospora cubensis, Table A, component (b) alone 200 ppm, read-out: CDM Obsd (disease control rating)",47%
same,pest or weed control at 0.4 ppm,"[1]; Pseudoperonospora cubensis, Table G, component (b) alone at 0.4 ppm, read-out: CDM Obsd",43%
same,pest or weed control at 2 ppm,"[1]; Pseudoperonospora cubensis, Table G, component (b) alone at 2 ppm, read-out: CDM Obsd",33%
same,pest or weed control at 10 ppm,"[1]; Pseudoperonospora cubensis, Table G, component (b) alone at 10 ppm, read-out: CDM Obsd",26%
same,pest or weed control at 40 ppm,"[1]; Pseudoperonospora cubensis, Table G, component (b) alone at 40 ppm, read-out: CDM Obsd",26%
same,pest or weed control at 200 ppm,"[1]; Pseudoperonospora cubensis, Table G, component (b) alone at 200 ppm, read-out: CDM Obsd",47%
same,pest or weed control at 0.4 ppm,[1]; [10],0%
same,pest or weed control at 2 ppm,[1]; [11],0%
same,pest or weed control at 10 ppm,[1]; [12],0%
same,pest or weed control at 40 ppm,[1]; [13],0%
same,pest or weed control at 200 ppm,"[1]; Pseudoperonospora cubensis, component (b) alone, 200 ppm, read-out: CDM Obsd",16%
same,pest or weed control at 0.4 ppm,"[2]; Phytophthora infestans, read-out: TLB Obsd (disease control rating), Table A, component (b) alone 0.4 ppm",0%
same,pest or weed control at 2 ppm,"[2]; Phytophthora infestans, read-out: TLB Obsd (disease control rating), Table A, component (b) alone 2 ppm",0%
same,pest or weed control at 10 ppm,"[2]; Phytophthora infestans, read-out: TLB Obsd (disease control rating), Table A, component (b) alone 10 ppm",9%
same,pest or weed control at 40 ppm,"[2]; Phytophthora infestans, read-out: TLB Obsd (disease control rating), Table A, component (b) alone 40 ppm",17%
same,pest or weed control at 200 ppm,"[2]; Phytophthora infestans, read-out: TLB Obsd (disease control rating), Table A, component (b) alone 200 ppm",17%
same,pest or weed control at 0.4 ppm,[2]; [14],0%
same,pest or weed control at 2 ppm,[2]; [15],22%
same,pest or weed control at 10 ppm,[2]; [16],7%
same,pest or weed control at 40 ppm,[2]; [17],15%
same,pest or weed control at 200 ppm,"[2]; Phytophthora infestans, read-out: TLB Obsd, component (b) alone, 200 ppm",7%
[Cu+2].[OH-].[OH-] [copper hydroxide],CDM Obsd,[1]; [18],53%
same,CDM Obsd,[1]; [19],63%
same,CDM Obsd,[1]; [20],85%
same,CDM Obsd,[1]; [21],85%
same,CDM Obsd,[1]; [22],88%
same,CDM Obsd,[1]; [3],47%
same,CDM Obsd,[1]; [4],47%
same,CDM Obsd,[1]; component (b) alone 40 ppm (Compound 1 0 ppm),47%
same,CDM Obsd,[1]; component (b) alone 200 ppm (Compound 1 0 ppm),85%
same,CDM Obsd,[1]; component (b) alone 500 ppm (Compound 1 0 ppm),93%
same,"CDM Obsd (observed effect, cucumber downy mildew)","[1]; component (b) alone, 2 ppm",0
same,"CDM Obsd (observed effect, cucumber downy mildew)","[1]; component (b) alone, 10 ppm",0
same,"CDM Obsd (observed effect, cucumber downy mildew)","[1]; component (b) alone, 40 ppm",0
same,"CDM Obsd (observed effect, cucumber downy mildew)","[1]; component (b) alone, 200 ppm",29
same,"CDM Obsd (observed effect, cucumber downy mildew)","[1]; component (b) alone, 500 ppm",37
same,TLB Obsd,[2]; [18],32%
same,TLB Obsd,[2]; [19],48%
same,TLB Obsd,[2]; [20],40%
same,TLB Obsd,[2]; [21],70%
same,TLB Obsd,[2]; [22],91%
same,"TLB Obsd (observed effect, tomato late blight)","[2]; component (b) alone, 2 ppm",22
same,"TLB Obsd (observed effect, tomato late blight)","[2]; component (b) alone, 10 ppm",36
same,"TLB Obsd (observed effect, tomato late blight)","[2]; component (b) alone, 40 ppm",50
same,"TLB Obsd (observed effect, tomato late blight)","[2]; component (b) alone, 200 ppm",71
same,"TLB Obsd (observed effect, tomato late blight)","[2]; component (b) alone, 500 ppm",77
Cc1ccc(-c2c(Cl)nc(C#N)n2S(=O)(=O)N(C)C)cc1 [cyazofamid],pest or weed control at 0.016 µg/mL,"[1]; Pseudoperonospora cubensis, component (b) alone 0.016 ppm (Compound 1 0 ppm), read-out: CDM Obsd",47%
same,pest or weed control at 0.08 µg/mL,[1]; [5],100%
same,pest or weed control at 0.4 µg/mL,[1]; [6],100%
same,pest or weed control at 2 µg/mL,[1]; [7],100%
same,pest or weed control at 10 µg/mL,[1]; [8],100%
same,pest or weed control at 0.016 ppm,"[1]; Pseudoperonospora cubensis, component (b) alone, 0.016 ppm, read-out: CDM Obsd",43%
same,pest or weed control at 0.08 ppm,[1]; [9],57%
same,pest or weed control at 0.4 ppm,[1]; [10],100%
same,pest or weed control at 2 ppm,[1]; [11],100%
same,pest or weed control at 10 ppm,[1]; [12],100%
same,pest or weed control at 0.016 ppm,"[2]; Phytophthora infestans, read-out: TLB Obsd, component (b) alone, 0.016 ppm",25%
same,pest or weed control at 0.08 ppm,[2]; Phytophthora infestans,52%
same,pest or weed control at 0.4 ppm,[2]; [14],58%
same,pest or weed control at 2 ppm,[2]; [15],100%
same,pest or weed control at 10 ppm,[2]; [16],100%

# From patent US8449898B2 (priority 2007, dated 2013)
